In ChEMBL document CHEMBL1201862, “PubChem BioAssay data set” (2004):
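Compound exposure: 48 hours, 5 concentrations, 96-well plates. GI50: concentration for 50% inhibition of growth.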 Active and inactive are the calls of the source. Cut-off read from the data, not from the text of the source: active = GI50 up to about 1.1 µM and inactive = higher.

Legend:
Test in all cases: inhibition of tumour cell growth, NCI panel, 48 h
DU-145 = system: DU-145
CCRF-CEM = system: CCRF-CEM
OVCAR-3 = system: OVCAR-3
COLO 205 = system: COLO 205
786-0 = system: 786-0
SK-MEL-2 = system: SK-MEL-2
BT-549 = system: BT-549
TK-10 = system: TK-10
MDA-MB-435 = system: MDA-MB-435
NCI-H522 = system: NCI-H522
OVCAR-8 = system: OVCAR-8
Malme-3M = system: Malme-3M
U-251 = system: U-251
Hs-578T = system: Hs-578T
MOLT-4 = system: MOLT-4
A549 = system: A549
NCI-H23 = system: NCI-H23
UO-31 = system: UO-31
NCI-H460 = system: NCI-H460
OVCAR-4 = system: OVCAR-4

Measured: GI50

O=C(CCCc1cccc2[nH]c3c(c12)CN(Cc1ccccc1)CC3)c1ccc(F)cc1
inactive: DU-145 > 100 µM | CCRF-CEM 30.4 µM | OVCAR-3 > 100 µM | COLO 205 14.4 µM | 786-0 > 52.5 µM | SK-MEL-2 > 100 µM | BT-549 > 100 µM | TK-10 > 100 µM | MDA-MB-435 40.6 µM | NCI-H522 32.4 µM | OVCAR-8 > 100 µM | Malme-3M 40.9 µM | U-251 49.4 µM | Hs-578T 99.5 µM | MOLT-4 15.3 µM | A549 > 95.9 µM | NCI-H23 16.3 µM | UO-31 > 33.3 µM | NCI-H460 31.5 µM | OVCAR-4 > 67 µM

Cc1ccc(C(=O)/C=C2/Nc3ccc([N+](=O)[O-])cc3N/C2=C/C(=O)c2ccc(C)cc2)cc1
inactive: DU-145 > 100 µM | CCRF-CEM 88.3 µM | OVCAR-3 > 100 µM | COLO 205 > 100 µM | 786-0 60.7 µM | SK-MEL-2 66.5 µM | BT-549 > 100 µM | TK-10 > 100 µM | MDA-MB-435 > 100 µM | NCI-H522 47.1 µM | OVCAR-8 36 µM | Malme-3M > 100 µM | U-251 27.7 µM | Hs-578T 23.2 µM | MOLT-4 > 100 µM | A549 > 100 µM | NCI-H23 37.7 µM | UO-31 > 100 µM | NCI-H460 > 100 µM | OVCAR-4 61.4 µM

O=C(Nc1nnc(-c2ccccc2)o1)C(SC(=S)N1CCOCC1)c1ccccc1 (stereo not given)
inactive: DU-145 37.2 µM | CCRF-CEM 5.75 µM | OVCAR-3 15 µM | COLO 205 35.6 µM | 786-0 17.9 µM | SK-MEL-2 16.8 µM | BT-549 22.5 µM | TK-10 51.6 µM | MDA-MB-435 33.2 µM | NCI-H522 23.2 µM | OVCAR-8 31.8 µM | Malme-3M 55.6 µM | U-251 18.6 µM | Hs-578T 86.3 µM | MOLT-4 7.98 µM | A549 22.6 µM | NCI-H23 18.9 µM | UO-31 13.6 µM | NCI-H460 10.1 µM | OVCAR-4 34 µM

CN(C)c1ccc(/N=N\c2cccc3ccoc23)cc1
inactive: DU-145 > 100 µM | CCRF-CEM > 100 µM | OVCAR-3 38.4 µM | COLO 205 > 82.8 µM | 786-0 > 100 µM | SK-MEL-2 > 100 µM | BT-549 > 95.7 µM | TK-10 56.5 µM | MDA-MB-435 > 94.2 µM | NCI-H522 35.4 µM | OVCAR-8 > 78 µM | Malme-3M > 100 µM | U-251 > 62.5 µM | Hs-578T > 100 µM | MOLT-4 17.1 µM | A549 > 71.9 µM | NCI-H23 > 68.7 µM | UO-31 6.46 µM | NCI-H460 > 73.3 µM | OVCAR-4 29.4 µM
